Experimental data from PubChem BioAssay (NCI).
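Interpolation was linear, between the two tested concentrations surrounding the appropriate level; five concentrations were tested over 48 hours in 96-well plates. TGI denotes the concentration required for complete inhibition of growth.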 Where a SMILES comes first, the peptide text is derived from it. [ ]: non-standard residue; d: D form. The star is where a group is joined. ξ: configuration not given here. NMeY = CN[C@@H](Cc1ccc(O)cc1)C(=O)O; Cbz = O=C(OCc1ccccc1)*; ξA = CC(N)C(=O)O

What was measured:
Assay in all cases: NCI anticancer screen, dose series, 48 h
EKVX NSCLC = system: EKVX NSCLC
HOP-92 NSCLC = system: HOP-92 NSCLC
M14 melanoma = system: M14 melanoma
A498 renal = system: A498 renal
LOX IMVI melanoma = system: LOX IMVI melanoma
MDA-N = system: MDA-N
NCI/ADR-RES ovarian = system: NCI/ADR-RES ovarian
SK-MEL-2 melanoma = system: SK-MEL-2 melanoma
RXF 393 renal = system: RXF 393 renal
NCI-H226 lung = system: NCI-H226 lung

Compound	TGI (EKVX NSCLC)	TGI (HOP-92 NSCLC)	TGI (M14 melanoma)	TGI (A498 renal)	TGI (LOX IMVI melanoma)	TGI (MDA-N)	TGI (NCI/ADR-RES ovarian)	TGI (SK-MEL-2 melanoma)	TGI (RXF 393 renal)	TGI (NCI-H226 lung)
COc1ccc(C[C@@H](C(=O)N[C@@H](C)C(N)=O)N(C)C(=O)[C@@H]2CCCN2C(=O)[C@H](CC(C)C)NC(=O)C(C)NC(=O)OCc2ccccc2)cc1 (some centres undefined) (Cbz-[ξA]LP[NMeY](Me)A-NH2)	> 100 µM	> 100 µM	> 100 µM	> 100 µM	> 100 µM	> 100 µM	> 100 µM	> 100 µM	> 100 µM	> 100 µM
COc1ccc2nc3c4c(nccc4c2c1)-c1ncccc1C3=O	0.903 µM	12.3 µM	0.29 µM	0.224 µM	0.0977 µM	0.128 µM	7.62 µM	1.43 µM	1.02 µM	0.445 µM
Cc1cc(NS(=O)(=O)c2ccc(NO)cc2)no1	> 100 µM	> 100 µM	> 100 µM	> 100 µM	39.6 µM	44.4 µM	> 100 µM	> 100 µM	> 100 µM	> 100 µM
CCCCCCCCCCCCCCCCCCN(C)CC(COC)OP(=O)([O-])OCC[N+](C)(C)C (centres undefined)	28.1 µM	3.33 µM	15 µM	14 µM	20.2 µM	15.3 µM	33.3 µM	30.2 µM	2.29 µM	13.5 µM
CC(=Nc1ccc(Cl)cc1)c1ccncc1	> 100 µM	> 100 µM	> 100 µM	> 100 µM	> 100 µM	> 100 µM	> 100 µM	> 100 µM	> 100 µM	> 100 µM
COc1ccc(COCC[C@H](C)OC2OC(CO[Si](C)(C)C(C)(C)C)C(O)C(O)C2O)cc1 (some centres undefined)	> 100 µM	> 100 µM	> 100 µM	> 100 µM	> 100 µM	> 100 µM	> 100 µM	> 100 µM	> 100 µM	> 100 µM
COc1ccc2nc3cccc([N+](=O)[O-])c3c(NCCC(=O)O)c2c1	> 10 µM	> 10 µM	> 10 µM	> 10 µM	> 10 µM	> 10 µM	> 10 µM	> 10 µM	> 10 µM	> 10 µM
Cn1c2ncccc2n2c(=O)cc(O)cc12	> 100 µM	81.4 µM	> 100 µM	> 100 µM	> 100 µM	> 100 µM	> 100 µM	> 100 µM	75.5 µM	> 100 µM
O=c1ccn(C/C=C/c2ccccc2)c(=S)n1C/C=C/c1ccccc1	> 100 µM	> 100 µM	> 100 µM	> 100 µM	> 100 µM	> 100 µM	> 100 µM	> 100 µM	85.6 µM	> 100 µM
CN(C)c1n2c3ccc([N+](=O)[O-])cc3n3c(N(C)C)[n+]4ccccc4c3c2c2cccc[n+]12	> 100 µM	> 100 µM	> 100 µM	> 100 µM	> 100 µM	> 100 µM	> 100 µM	> 100 µM	> 100 µM	> 100 µM
Nc1c(S(=O)(=O)O)cc(S(=O)(=O)O)c2ccc(N=Nc3ccccc3)c(O)c12	> 100 µM	> 100 µM	> 100 µM	> 100 µM	> 100 µM	> 100 µM	> 100 µM	> 100 µM	> 100 µM	> 100 µM
CCOC(=O)c1c2ccccc2n2c(=O)n(-c3ccc(OC)cc3)nnc12	> 100 µM	> 65.7 µM	> 100 µM	> 100 µM	> 100 µM	> 100 µM	> 100 µM	> 100 µM	43.5 µM	87.9 µM
Cc1cc(-c2nc3cc(F)ccc3s2)ccc1N	> 85.3 µM	> 78 µM	> 88.8 µM	66.8 µM	> 100 µM	> 100 µM	> 100 µM	> 68.4 µM	52.4 µM	> 93.6 µM
Cc1nc(C)c(N2CCN(Cc3ccccc3)CC2)c(=O)[nH]1	> 100 µM	> 100 µM	> 100 µM	> 100 µM	> 100 µM	> 100 µM	> 100 µM		> 100 µM	> 100 µM
CCCCC/C=C\C=C\CCCCCCCCC(=O)OC	> 100 µM	> 100 µM	> 100 µM	> 100 µM	87.9 µM	> 100 µM	> 100 µM	> 100 µM	> 100 µM	> 100 µM
CO[P@@]1(=O)O[C@@H](c2ccccc2)[C@H](O)[C@@]1(O)c1ccccc1	> 100 µM	> 100 µM	> 100 µM	> 100 µM	> 100 µM	> 100 µM	> 100 µM	> 100 µM	> 100 µM	> 100 µM
